# Reference: patent US9283222B2 (priority 2006, dated 2016)
# pKi: −log10 of the molar value.
# Target: Recombinant Human Poly(ADP-Ribose) Polymerase (PARP), PARP-1 (Homo sapiens (Human), UniProt P09874)
# Conditions: read-out: PARP-1 (Ki); Table 1; text calls the values EC50s
# Sequence of Recombinant Human Poly(ADP-Ribose) Polymerase (PARP), PARP-1 (P09874 whole entry): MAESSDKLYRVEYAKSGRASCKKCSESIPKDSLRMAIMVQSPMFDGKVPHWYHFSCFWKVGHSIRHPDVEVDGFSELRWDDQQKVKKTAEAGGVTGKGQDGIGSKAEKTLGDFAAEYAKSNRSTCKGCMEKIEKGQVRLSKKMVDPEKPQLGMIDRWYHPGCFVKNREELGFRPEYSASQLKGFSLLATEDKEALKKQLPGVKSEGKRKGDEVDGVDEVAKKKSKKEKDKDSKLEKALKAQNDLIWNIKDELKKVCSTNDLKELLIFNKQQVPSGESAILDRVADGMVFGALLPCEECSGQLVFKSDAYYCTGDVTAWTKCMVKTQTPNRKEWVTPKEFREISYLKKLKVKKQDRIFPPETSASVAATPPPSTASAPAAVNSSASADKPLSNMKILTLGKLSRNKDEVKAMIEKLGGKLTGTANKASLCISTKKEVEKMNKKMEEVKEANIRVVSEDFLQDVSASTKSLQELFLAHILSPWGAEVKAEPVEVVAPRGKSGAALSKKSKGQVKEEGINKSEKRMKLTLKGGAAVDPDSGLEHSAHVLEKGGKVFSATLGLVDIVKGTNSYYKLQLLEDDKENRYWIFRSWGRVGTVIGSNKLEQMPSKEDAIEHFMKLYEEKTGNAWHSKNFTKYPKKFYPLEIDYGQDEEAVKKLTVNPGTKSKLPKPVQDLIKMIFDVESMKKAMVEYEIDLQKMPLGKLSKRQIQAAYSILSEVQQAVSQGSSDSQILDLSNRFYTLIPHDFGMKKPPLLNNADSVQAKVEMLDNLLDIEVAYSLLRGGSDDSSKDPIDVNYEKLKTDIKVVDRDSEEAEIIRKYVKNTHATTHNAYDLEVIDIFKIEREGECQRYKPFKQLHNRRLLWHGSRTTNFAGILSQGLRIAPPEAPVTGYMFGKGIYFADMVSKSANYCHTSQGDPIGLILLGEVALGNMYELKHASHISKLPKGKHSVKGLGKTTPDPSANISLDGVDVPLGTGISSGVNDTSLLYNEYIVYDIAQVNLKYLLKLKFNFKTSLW
row,pKi,SMILES
1,6.80,"CC(C)(C)c1ccc(C(=O)Nc2cccc(Cc3n[nH]c(=O)c4c3CCCC4)c2)cc1 [Example 233, 4-tert-butyl-N-(3-((4-oxo-3,4,5,6,7,8-hexahydrophthalazin-1-yl)methyl)phenyl)benzamide]"
2,8.77,"O=C(c1ccco1)N1CCCN(C(=O)c2cc(Cc3n[nH]c(=O)c4c3NCCC4)ccc2F)CC1 [Example 694, 8-(4-fluoro-3-{[4-(2-furoyl)-1,4-diazepan-1-yl]carbonyl}benzyl)-2,3,4,6-tetrahydropyrido[2,3-d]pyridazin-5(1H)-one]"
3,7.28,"N[C@H]1CCCC[C@@H]1NC(=O)c1cc(Cc2n[nH]c(=O)c3c2NCCC3)ccc1F [Example 740, N-[(1S,2S)-2-aminocyclohexyl]-2-fluoro-5-[(5-oxo-1,2,3,4,5,6-hexahydropyrido[2,3-d]pyridazin-8-yl)methyl]benzamide]"
4,6.18,"O=C(c1cccc(-c2cc(CCc3n[nH]c(=O)c4c3CCCC4)ccc2F)c1)N1CCOCC1 [Example 264, 4-(2-(6-fluoro-3′-(morpholin-4-ylcarbonyl)-1,1′-biphenyl-3-yl)ethyl)-5,6,7,8-tetrahydrophthalazin-1(2H)-one]"
5,7.55,"O=C(NCCc1c[nH]c2ccccc12)c1cccc(Cc2n[nH]c(=O)c3c2CCCC3)c1 [Example 318, N-(2-(1H-indol-3-yl)ethyl)-3-((4-oxo-3,4,5,6,7,8-hexahydrophthalazin-1-yl)methyl)benzamide]"
6,8.62,"O=C(c1cnc2ccccc2c1)N1CCCN(C(=O)c2cc(Cc3n[nH]c(=O)c4c3NCCC4)ccc2F)CC1 [Example 688, 8-(4-fluoro-3-{[4-(quinolin-3-ylcarbonyl)-1,4-diazepan-1-yl]carbonyl}benzyl)-2,3,4,6-tetrahydropyrido[2,3-d]pyridazin-5(1H)-one]"
7,8.89,"O=C(c1ccc2ccccc2n1)N1CCN(C(=O)c2cc(Cc3n[nH]c(=O)c4c3CCCC4)ccc2F)CC1 [Example 739, 4-(4-fluoro-3-{[4-(quinolin-2-ylcarbonyl)piperazin-1-yl]carbonyl}benzyl)-5,6,7,8-tetrahydrophthalazin-1(2H)-one]"
8,7.80,"CCN(CC)CCN(C)C(=O)c1cccc(Cc2n[nH]c(=O)c3c2CCCC3)c1 [Example 419, N-(2-(diethylamino)ethyl)-N-methyl-3-((4-oxo-3,4,5,6,7,8-hexahydrophthalazin-1-yl)methyl)benzamide]"
9,6.73,"O=C(Nc1ccc(N2CCCCC2)cc1)c1cccc(Cc2n[nH]c(=O)c3c2CCCC3)c1 [Example 362, 3-((4-oxo-3,4,5,6,7,8-hexahydrophthalazin-1-yl)methyl)-N-(4-piperidin-1-ylphenyl)benzamide]"
10,8.72,"O=C(c1ccc2nc[nH]c2c1)N1CCCN(C(=O)c2cc(Cc3n[nH]c(=O)c4c3NCCC4)ccc2F)CC1 [Example 686, 8-(3-{[4-(1H-benzimidazol-6-ylcarbonyl)-1,4-diazepan-1-yl]carbonyl}-4-fluorobenzyl)-2,3,4,6-tetrahydropyrido[2,3-d]pyridazin-5(1H)-one]"
11,8.30,"Cc1cnc(C(=O)Nc2cccc(Cc3n[nH]c(=O)c4c3CCCC4)c2)cn1 [Example 217, 5-methyl-N-(3-((4-oxo-3,4,5,6,7,8-hexahydrophthalazin-1-yl)methyl)phenyl)pyrazine-2-carboxamide]"
12,9.15,"COc1ccc(S(=O)(=O)N2CCN(C(=O)c3cc(Cc4n[nH]c(=O)c5c4NCCC5)ccc3F)CC2)cc1 [Example 600, 8-[4-fluoro-3-({4-[(4-methoxyphenyl)sulfonyl]piperazin-1-yl}carbonyl)benzyl]-2,3,4,6-tetrahydropyrido[2,3-d]pyridazin-5(1H)-one]"
13,6.24,"O=c1[nH]nc(Cc2cccc(NS(=O)(=O)c3ccccc3)c2)c2c1CCCC2 [Example 116, N-(3-((4-oxo-3,4,5,6,7,8-hexahydrophthalazin-1-yl)methyl)phenyl)benzenesulfonamide]"
14,7.25,"CC(c1ccc(F)c(N2CCC2=O)c1)c1n[nH]c(=O)c2c1CCCC2 (stereo not drawn) [Example 451, 4-(1-(4-fluoro-3-(2-oxoazetidin-1-yl)phenyl)ethyl)-5,6,7,8-tetrahydrophthalazin-1(2H)-one]"
15,7.49,"O=c1[nH]nc(Cc2cccc(-c3cccc(CNC4CCC4)c3)c2)c2c1CCCC2 [Example 131, 4-((3′-((cyclobutylamino)methyl)-1,1′-biphenyl-3-yl)methyl)-5,6,7,8-tetrahydrophthalazin-1(2H)-one]"
16,7.21,"O=C(Nc1cccc(Cc2n[nH]c(=O)c3c2CCCC3)c1)c1ccoc1 [Example 194, N-(3-((4-oxo-3,4,5,6,7,8-hexahydrophthalazin-1-yl)methyl)phenyl)-3-furamide]"
17,7.66,"O=C(Nc1cccc(Cc2n[nH]c(=O)c3c2CCCC3)c1)c1ccno1 [Example 208, N-(3-((4-oxo-3,4,5,6,7,8-hexahydrophthalazin-1-yl)methyl)phenyl)isoxazole-5-carboxamide]"

row,pKi,SMILES
1,8.66,"CN1CCN(C(=O)c2cc(Cc3n[nH]c(=O)c4c3NCCC4)ccc2F)CC1=O [Example 697, 8-{4-fluoro-3-[(4-methyl-3-oxopiperazin-1-yl)carbonyl]benzyl}-2,3,4,6-tetrahydropyrido[2,3-d]pyridazin-5(1H)-one]"
2,7.46,"Cc1ccc(OCC(=O)Nc2cccc(Cc3n[nH]c(=O)c4c3CCCC4)c2)cc1C [Example 163, 2-(3,4-dimethylphenoxy)-N-(3-((4-oxo-3,4,5,6,7,8-hexahydrophthalazin-1-yl)methyl)phenyl)acetamide]"
3,7.96,"O=C(NC1CCN(C(=O)c2cscn2)CC1)c1cc(Cc2n[nH]c(=O)c3c2NCCC3)ccc1F [Example 731, 2-fluoro-5-[(5-oxo-1,2,3,4,5,6-hexahydropyrido[2,3-d]pyridazin-8-yl)methyl]-N-[1-(1,3-thiazol-4-ylcarbonyl)piperidin-4-yl]benzamide]"
4,6.44,"CCOc1ccccc1NC(=O)c1cccc(Cc2n[nH]c(=O)c3c2CCCC3)c1 [Example 354, N-(2-ethoxyphenyl)-3-((4-oxo-3,4,5,6,7,8-hexahydrophthalazin-1-yl)methyl)benzamide]"
5,8.40,"O=C(NC1CCN(C(=O)c2ccco2)CC1)c1cc(Cc2n[nH]c(=O)c3c2NCCC3)ccc1F [Example 726, 2-fluoro-N-[1-(2-furoyl)piperidin-4-yl]-5-[(5-oxo-1,2,3,4,5,6-hexahydropyrido[2,3-d]pyridazin-8-yl)methyl]benzamide]"
6,7.62,"O=c1[nH]nc(Cc2cccc(-c3cccc(CNC4CC4)c3)c2)c2c1CCCC2 [Example 130, 4-((3′-((cyclopropylamino)methyl)-1,1′-biphenyl-3-yl)methyl)-5,6,7,8-tetrahydrophthalazin-1(2H)-one]"
7,9.15,O=C(c1ccc(Cl)nc1)N1CCN(C(=O)c2cc(Cc3n[nH]c(=O)c4c3NCCC4)ccc2F)CC1 [Example 646]
8,7.66,"O=C(NCCc1ccc2c(c1)OCO2)c1cccc(Cc2n[nH]c(=O)c3c2CCCC3)c1 [Example 407, N-(2-(1,3-benzodioxol-5-yl)ethyl)-3-((4-oxo-3,4,5,6,7,8-hexahydrophthalazin-1-yl)methyl)benzamide]"
9,7.15,"O=C(NCCc1cccnc1)c1cccc(Cc2n[nH]c(=O)c3c2CCCC3)c1 [Example 380, 3-((4-oxo-3,4,5,6,7,8-hexahydrophthalazin-1-yl)methyl)-N-(2-pyridin-3-ylethyl)benzamide]"
10,7.17,"O=C(NCCc1ccncc1)c1cccc(Cc2n[nH]c(=O)c3c2CCCC3)c1 [Example 381, 3-((4-oxo-3,4,5,6,7,8-hexahydrophthalazin-1-yl)methyl)-N-(2-pyridin-4-ylethyl)benzamide]"
11,8.89,"O=C(c1ccccn1)N1CCN(C(=O)c2cc(Cc3n[nH]c(=O)c4c3CCCC4)ccc2F)CC1 [Example 730, 4-(4-fluoro-3-{[4-(pyridin-2-ylcarbonyl)piperazin-1-yl]carbonyl}benzyl)-5,6,7,8-tetrahydrophthalazin-1(2H)-one]"
12,6.88,"O=C(NCc1ccncc1)c1cccc(Cc2n[nH]c(=O)c3c2CCCC3)c1 [Example 312, 3-((4-oxo-3,4,5,6,7,8-hexahydrophthalazin-1-yl)methyl)-N-(pyridin-4-ylmethyl)benzamide]"
13,8.74,"CCN1CCN(C(=O)c2cc(Cc3n[nH]c(=O)c4c3CCCC4)ccc2F)CC1 [Example 580, 4-{3-[(4-ethylpiperazin-1-yl)carbonyl]-4-fluorobenzyl}-5,6,7,8-tetrahydrophthalazin-1(2H)-one]"
14,9.10,"CCC(=O)N1CCN(C(=O)c2cc(Cc3n[nH]c(=O)c4c3NCCC4)ccc2F)CC1 [Example 597, 8-{4-fluoro-3-[(4-propionylpiperazin-1-yl)carbonyl]benzyl}-2,3,4,6-tetrahydropyrido[2,3-d]pyridazin-5(1H)-one]"
15,9.10,"O=C(c1ccco1)N1CCN(C(=O)c2cc(Cc3n[nH]c(=O)c4c3NCCC4)ccc2F)CC1 [Example 553, 8-(4-fluoro-3-{[4-(2-furoyl)piperazin-1-yl]carbonyl}benzyl)-2,3,4,6-tetrahydropyrido[2,3-d]pyridazin-5(1H)-one]"
16,7.37,"O=C(Cc1cccc(Oc2ccccc2)c1)Nc1cccc(Cc2n[nH]c(=O)c3c2CCCC3)c1 [Example 176, N-(3-((4-oxo-3,4,5,6,7,8-hexahydrophthalazin-1-yl)methyl)phenyl)-2-(3-phenoxyphenyl)acetamide]"

row,SMILES,pKi
1,"Cc1c(C(=O)Nc2cc(Cc3n[nH]c(=O)c4c3CCCC4)ccc2F)cnn1-c1ccccc1 [Example 454, N-(2-fluoro-5-((4-oxo-3,4,5,6,7,8-hexahydrophthalazin-1-yl)methyl)phenyl)-5-methyl-1-phenyl-1H-pyrazole-4-carboxamide]",7.80
2,"O=C(c1cc(Cc2n[nH]c(=O)c3c2CCCC3)ccc1F)N1CCN(c2ncccn2)CC1 [Example 490, 4-(4-fluoro-3-((4-pyrimidin-2-ylpiperazin-1-yl)carbonyl)benzyl)-5,6,7,8-tetrahydrophthalazin-1(2H)-one]",9.15
3,"CN1CCCN(C(=O)c2cccc(Cc3n[nH]c(=O)c4c3CCCC4)c2)CC1 [Example 447, 4-(3-((4-methyl-1,4-diazepan-1-yl)carbonyl)benzyl)-5,6,7,8-tetrahydrophthalazin-1(2H)-one]",8.00
